From the NIST ThermoML archive (doi:10.1016/j.jct.2011.04.006)
Where “and” joins values, the source holds several entries; their conditions need not be identical. Identical values can stand only once.

How the values were obtained:
[1] = 298.15 K; 101.33 kPa; Liquid; Vibrating tube method
[2] = excess molar enthalpy (molar enthalpy of mixing); xn = mol fraction of the nth substance listed; conditions: 298.15 K, 101 kPa, Liquid, Flow calorimetry

CCC(C)(C)C [2,2-dimethylbutane]
Conditions | mass density [kg/m3]
[1] | 644.588

CCC(C)(C)C [2,2-dimethylbutane] + CCCCOCCCC
[2]
Conditions | excess molar enthalpy [kcal/mol]
x2 = 0.05 | 0.0065
x2 = 0.1 | 0.0112
x2 = 0.1499 | 0.015
x2 = 0.2001 | 0.018
x2 = 0.2502 | 0.0205
x2 = 0.2996 | 0.0224
x2 = 0.3501 | 0.0237
x2 = 0.3998 | 0.0246
x2 = 0.4497 | 0.0249
x2 = 0.5003 | 0.0246
x2 = 0.5004 | 0.0245
x2 = 0.5499 | 0.0239
x2 = 0.6002 | 0.0228
x2 = 0.6498 | 0.0213
x2 = 0.6999 | 0.0197
x2 = 0.7501 | 0.0173
x2 = 0.8 | 0.0149
x2 = 0.85 | 0.0119
x2 = 0.9 | 0.0088
x2 = 0.95 | 0.00528

CCC(C)(C)C [2,2-dimethylbutane] + CCCOCCC
[2]
Conditions | excess molar enthalpy [kcal/mol]
x2 = 0.05 | 0.00906
x2 = 0.1 | 0.0163
x2 = 0.15 | 0.0214
x2 = 0.2 | 0.0261
x2 = 0.2499 | 0.0298
x2 = 0.2998 | 0.0328
x2 = 0.3499 | 0.0349
x2 = 0.3998 | 0.036
x2 = 0.4501 | 0.037
x2 = 0.4995 | 0.037
x2 = 0.5497 | 0.0361
x2 = 0.6001 | 0.0347
x2 = 0.65 | 0.0325
x2 = 0.7001 | 0.0298
x2 = 0.7503 | 0.0265
x2 = 0.8001 | 0.0226
x2 = 0.85 | 0.0179
x2 = 0.9 | 0.0127
x2 = 0.95 | 0.00676

CC(C)C(C)C [2,3-dimethylbutane]
Conditions | mass density [kg/m3]
[1] | 657.023

CC(C)C(C)C [2,3-dimethylbutane] + CCCCOCCCC
[2]
Conditions | excess molar enthalpy [kcal/mol]
x2 = 0.05 | 0.00607
x2 = 0.1 | 0.0104
x2 = 0.1501 | 0.0141
x2 = 0.2 | 0.0172
x2 = 0.2502 | 0.0196
x2 = 0.3 | 0.0215
x2 = 0.3499 | 0.0228
x2 = 0.3998 | 0.0238
x2 = 0.4501 | 0.0243
x2 = 0.5 | 0.0243
x2 = 0.5002 | 0.0242
x2 = 0.5493 | 0.0239
x2 = 0.5999 | 0.0229
x2 = 0.6501 | 0.0217
x2 = 0.7 | 0.02
x2 = 0.75 | 0.0181
x2 = 0.8001 | 0.0159
x2 = 0.85 | 0.0133
x2 = 0.9001 | 0.0101
x2 = 0.95 | 0.00672

CC(C)C(C)C [2,3-dimethylbutane] + CCCOCCC
[2]
Conditions | excess molar enthalpy
x2 = 0.05 | 0.00846 kcal/mol
x2 = 0.1 | 0.0152 kcal/mol
x2 = 0.15 | 0.0206 kcal/mol
x2 = 0.2001 | 0.0252 kcal/mol
x2 = 0.25 | 0.0288 kcal/mol
x2 = 0.3001 | 0.0321 kcal/mol
x2 = 0.3499 | 0.0346 kcal/mol
x2 = 0.4 | 0.0364 kcal/mol
x2 = 0.4498 | 0.0374 kcal/mol
x2 = 0.4998 | 0.0377 kcal/mol and 0.0376 kcal/mol
x2 = 0.55 | 0.0372 kcal/mol
x2 = 0.5999 | 0.0359 kcal/mol
x2 = 0.6501 | 0.034 kcal/mol
x2 = 0.7 | 0.0314 kcal/mol
x2 = 0.7502 | 0.028 kcal/mol
x2 = 0.8 | 0.0242 kcal/mol
x2 = 0.85 | 0.0193 kcal/mol
x2 = 0.9 | 0.0138 kcal/mol
x2 = 0.95 | 0.0075 kcal/mol

CCCOCCC [dipropyl ether]
Conditions | mass density [kg/m3]
[1] | 741.977
